Patent publication US9801955B2, “Methods and compositions for detecting drusen and predicting age-related macular degeneration” (University of Maryland, Baltimore, priority 2012, dated 2017)

How the values were obtained:
[1] = Fluorescent staining of cadaver posterior retinas (sub-RPE deposits, drusen); parameters: species or system human; details: for increase in apparent intensity over the fluorescent background of the sub-RPE alone: cadaver posterior retinas
[2] = Staining of tribasic calcium phosphate; assay type: binding; details: compared with HAP
Description: (§1) Hydroxyapatite Bio-Gel HTP resin (Bio-Rad catalog 130-0420) (Bio-Red Laboratories, Inc., Hercules, Calif.) was used as a model for hydroxyapatite in deposits for purposes of collecting emission spectra; stained resin particles were suspended in propylene glycol for fluorescence spectroscopy. Calcium phosphate tribasic (34-40% Ca basis, cat no. C5267), Calcium hydrogen phosphate dihydrate (dibasic, 98%, cat. No. 307653) and calcium phosphate monobasic monohydrate (>85%, cat no. 21053) were all products of Sigma Aldrich and used without further purification. Fluorescence spectra were obtained on a Spectronics AB-2 spectrophotofluorometer with a high pressure xenon lamp.
(§2) The dibasic form of calcium phosphate is listed as 98% pure. […] IRDye 680RD BoneTag was also tested on HAP and drusen. This probe is a long wavelength excitable fluorophore coupled to tetracycline designed as an in vivo bone stain (J. L. Kovar et al., 2011 Anal. Biochem. 416(2):167-173).

[3] = Staining of dibasic calcium phosphate (Example 1); assay type: binding; details: compared with HAP
Description: as §1, §2

[4] = Nile Red staining of neutral lipids in unfixed whole mounts with drusen on Bruch's membrane (FIG. 8); parameters: species or system human
Description: Flat mounts were stained with 1 mg/ml Alizarin Red S (Sigma-Aldrich; Ex: 532 nm Em:620 nm), 20 μM Bone-Tag 680RD (Li-Cor; Ex: 620 nm Em:680 nm), 1 mg/ml tetracycline (Sigma-Aldrich; Ex: 405 nm Em: 570 nm), and 1 mg/ml Xylenol Orange (Sigma-Aldrich; Ex: 532 nm Em:570 nm) in aqueous buffer for 20 minutes at room temperature. Nile Red (Invitrogen, Carsbad, Calif.; Ex: 532 nm Em: 620 nm) was first dissolved in acetone and then diluted in aqueous buffer to 3.5 mg/ml and tissues were incubated for 20 minutes at room temperature.
Without being bound by theory or mechanism, HAP may form on the surface of an existing structure at the RPE/BM interface, for example lipid droplets or lipoproteins. […] The composition of the inner core of HAP spherules was analyzed by mass spectrometric imaging (FIG. 3). […] The native chemical composition was then analysed with time-of-flight secondary ion mass spectrometry (TOF-SIMS), which is well suited, as it combines high lateral resolution (˜250 nm) and very high sensitivity in the range of parts per million, and can image molecular ions and organic molecules over a wide mass range. […] The m/e 184 ion (i.e. from the phosphocholine headgroup fragment from phospholipids) is readily detected by TOF-SIMS as a characteristic marker, so its absence from the spherules implies a strong predominance of cholesterol and/or cholesteryl esters within the spherules.

[5] = Staining of HAP spherules in sub-RPE deposits in flat mounts of cadaver tissues (FIG. 7); parameters: species or system human; details: for staining of HAP spherules in sub-RPE deposits: flat mounts of cadaver tissues; for staining pattern in retinal tissue: human cadaveric eyes, FIG. 7
Description: The protocol of the study adhered to the tenets of the Declaration for Helsinki regarding research involving human tissue.
(§3) Briefly, the insoluble salts (100 mg in 1 ml 25 mM MOPS pH 7.5 buffer) were stained with 100 ul of 1 mg/ml dye (0.02 nmol/uL of the Bone Tag 680 RD dye) in buffer for 20 minutes at room temperature, followed by two rinses with buffer. Approximately 100 ul of the precipitate (a slurry) was suspended in propylene glycol. Fluorescence emission spectra shown in FIG. 6 were obtained at the excitation wavelengths described in the legend. […] Sub-RPE deposits can be readily identified based on their characteristic faint autofluorescence at excitation: 488 nm and emission: 525 nm).

[6] = Fluorescent staining of authentic hydroxyapatite, emission spectra (Example 2, FIG. 6); assay type: binding; details: for fluorescence of stained hydroxyapatite: 100 mg salt in 25 mM MOPS pH 7.5, 20 minutes at room temperature, suspended in propylene glycol; for specificity for HAP in comparison to dibasic calcium phosphate or zinc phosphate: FIG. 6
Description: as §3

[7] = Fluorescent staining of dibasic calcium phosphate, emission spectra (Example 2, FIG. 6); assay type: binding; details: 25 mM MOPS pH 7.5
Description: as §3

[8] = Fluorescent staining of zinc phosphate, specificity control (Example 2, FIG. 6); assay type: binding; details: 25 mM MOPS pH 7.5
Description: as §3

[9] = Staining of insoluble zinc phosphate (Example 1); assay type: binding
[10] = Staining of monobasic calcium phosphate; assay type: binding; details: salt slightly soluble
Description: as §1, §2

[11] = Fluorescent staining of HAP chromatographic medium as a model for drusen; assay type: binding
Description: as §1, §2

[12] = Staining of the elastin layer of the Bruch's membrane in cadaver retina; parameters: species or system human

Row | SMILES | increase in apparent intensity over the fluorescent background of the sub-RPE alone [1] | staining of tribasic calcium phosphate [2] | staining of dibasic calcium phosphate [3] | labelling of lipid inclusions in drusen [4] | staining of HAP spherules in sub-RPE deposits [5] | staining pattern in retinal tissue [5] | fluorescence of stained hydroxyapatite [6] | specificity for HAP in comparison to dibasic calcium phosphate or zinc phosphate [6] | staining of dibasic calcium phosphate [7] | staining of zinc phosphate [8] | contrast compared with tetracycline ([1]; cadaver posterior retina, excitation 550-600 nm, emission 650 nm) | adherence of stain to insoluble zinc phosphate [9] | staining of monobasic calcium phosphate [10] | change in fluorescence quantum yield upon binding HAP [11] | fluorescent staining of HAP (fluorescence emission when bound) ([11]; HAP chromatographic medium, stained, rinsed in distilled water, suspended in propylene glycol) | staining of the elastin layer of the Bruch's membrane [12]
1 | CN(C)[C@@H]1C(O)=C(C(N)=O)C(=O)[C@@]2(O)C(O)=C3C(=O)c4c(O)cccc4[C@@](C)(O)[C@H]3C[C@@H]12.Cl [Tetracycline HCl, Tetracycline hydrochloride] | eight-fold | less well than HAP | less well than HAP | – | – | – | – | – | – | – | – | – | – | – | – | –
2 | CCN(CC)c1ccc2nc3c4ccccc4c(=O)cc-3oc2c1 [Nile Red] | – | – | – | labelled a large number of spherical inclusions | – | – | – | – | – | – | – | – | – | – | – | –
3 | Cc1cc(C2(c3cc(C)c(O)c(CN(CC(=O)O)CC(=O)O)c3)OS(=O)(=O)c3ccccc32)cc(CN(CC(=O)O)CC(=O)O)c1O [Xylenol Orange] | – | – | – | – | effectively stained spherules | very similar staining patterns | only significant fluorescence from stained specimens is observed with hydroxyapatite | specific for HAP | did not stain significantly | did not stain significantly | – | – | – | – | – | –
4 | O=C1c2ccccc2C(=O)c2c1cc(S(=O)(=O)O)c(O)c2O [Alizarin Red S, 9,10-dihydro-3,4-dihydroxy-9,10-dioxo-2-anthracenesulfonic acid] | fifteen-fold | less well than HAP | less well than HAP | – | effectively stained spherules | very similar staining patterns | only significant fluorescence from stained specimens is observed with hydroxyapatite | specific for HAP | did not stain significantly | did not stain significantly | two-fold | did not appear that either stain was adhered | no staining was evident | substantial increase | bright fluorescence emission when bound to the HAP that did not rinse off despite repeated washes with buffer | No staining
